Test systems include A549 NSCLC; EKVX NSCLC; HCC-2998 colon; HOP-62 NSCLC; M14 melanoma; MCF7 breast; MDA-MB-435; NCI-H226 lung; OVCAR-5 ovarian; RXF 393 renal; SF-539 CNS; SK-MEL-28 melanoma; SK-MEL-5 melanoma; A498 renal; CCRF-CEM leukemia; DU-145 prostate.
Holding throughout (assay): growth of human tumour cells (NCI), 48 h

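Cells were grown in 96-well plates and exposed to each compound for 48 hours at five concentrations; endpoints were interpolated linearly between bracketing concentrations, or set to the highest concentration if not reached. TGI denotes the concentration required for complete inhibition of growth.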

Turning to `COc1ccc(-c2nc(N(C)C)c3ccccc3n2)cc1`, the TGI in the assay on A549 NSCLC is 46.8 µM; in the assay with EKVX NSCLC, 22.3 µM; in the assay with HCC-2998 colon, 23.5 µM; in the assay with HOP-62 NSCLC it was 51.5 µM; with M14 melanoma it was 44.2 µM; in the assay with MCF7 breast it was 24.1 µM. The TGI in the assay on MDA-MB-435 was 33.8 µM; in the assay with NCI-H226 lung it was 21.8 µM; in the assay on OVCAR-5 ovarian, 62.2 µM; in the assay with RXF 393 renal it was 24.7 µM; in the assay on SF-539 CNS, 42.8 µM; in the assay on SK-MEL-28 melanoma, 33.7 µM. In addition, the TGI in the assay on SK-MEL-5 melanoma came to 26.2 µM.
With `C/C(=N\Nc1nc2ccccc2[nH]1)c1ccncn1`, the TGI in the assay with A498 renal is 6.38 µM; in the assay on A549 NSCLC, over 100 µM; in the assay on CCRF-CEM leukemia it was over 36.6 µM; in the assay with EKVX NSCLC, 43.2 µM; in the assay on HCC-2998 colon, over 79.5 µM; with HOP-62 NSCLC it was 1.3 µM. Further, the TGI in the assay on MCF7 breast is over 39.2 µM; in the assay with MDA-MB-435, over 100 µM; with OVCAR-5 ovarian it was over 100 µM; with SF-539 CNS, over 100 µM; in the assay on SK-MEL-28 melanoma, over 63 µM; with SK-MEL-5 melanoma it was 13.4 µM.
In the case of `SC[C@@H]1COC[C@H](CS)S1`, the TGI in the assay with A549 NSCLC, with CCRF-CEM leukemia, with DU-145 prostate, in the assay on EKVX NSCLC, in the assay with HCC-2998 colon and with HOP-62 NSCLC was over 100 µM throughout. The TGI with M14 melanoma, in the assay with MCF7 breast, in the assay on MDA-MB-435, in the assay with OVCAR-5 ovarian, with SF-539 CNS and in the assay on SK-MEL-28 melanoma was over 100 µM each time. In the assay with SK-MEL-5 melanoma, this molecule yielded a TGI of over 100 µM.
For `C=CC1(c2ccc3ccccc3c2)OCC(CC)(CC)CO1`, the TGI in the assay with A549 NSCLC is over 100 µM; in the assay with CCRF-CEM leukemia it was 40.1 µM; with DU-145 prostate, over 100 µM; with HCC-2998 colon it was 37.3 µM; in the assay on HOP-62 NSCLC, 84.4 µM; with M14 melanoma it was 60.6 µM. Also, the TGI in the assay on MCF7 breast is 56.2 µM; with MDA-MB-435 it was 65.7 µM; with NCI-H226 lung, 33.4 µM; with OVCAR-5 ovarian it was 38.5 µM; with RXF 393 renal, 36.2 µM; with SF-539 CNS, 33.5 µM. For the same molecule, the TGI was over 100 µM in the assay with SK-MEL-28 melanoma and 34 µM in the assay with SK-MEL-5 melanoma.
As for `NC(=O)NC(CC(=O)O)C(=O)O` (stereo not drawn), the TGI in the assay on A498 renal, with A549 NSCLC, in the assay on CCRF-CEM leukemia, in the assay on DU-145 prostate, in the assay on EKVX NSCLC and in the assay with HCC-2998 colon was over 100 µM each time. Also, the TGI in the assay with HOP-62 NSCLC, with M14 melanoma, with MDA-MB-435, in the assay with NCI-H226 lung, in the assay with OVCAR-5 ovarian and in the assay with RXF 393 renal was over 100 µM each time. Also, the TGI with SK-MEL-28 melanoma and with SK-MEL-5 melanoma was over 100 µM throughout.
Consider `OC(c1ccc(F)cc1)C(F)(F)c1nc(-c2ccccc2)no1` (stereo not drawn), for which the TGI came to 39.2 µM in the assay on A498 renal; 52.2 µM in the assay on CCRF-CEM leukemia; 50.4 µM in the assay with DU-145 prostate; 63.7 µM in the assay on EKVX NSCLC; 32.7 µM with M14 melanoma; 50.3 µM in the assay with MCF7 breast. Also, the TGI with MDA-MB-435 was 35.6 µM; in the assay with OVCAR-5 ovarian it was 35.6 µM; in the assay on SK-MEL-28 melanoma, over 100 µM.
For `COC(=O)C(/C(=N/N)C(=O)Nc1ccc(C)c(C)c1)c1nc2ccc(Cl)cc2[nH]c1=O` (stereo not drawn), the TGI in the assay on A498 renal, in the assay on A549 NSCLC, in the assay with CCRF-CEM leukemia, in the assay with EKVX NSCLC, in the assay with HCC-2998 colon and in the assay with HOP-62 NSCLC was over 100 µM in each case. The TGI with M14 melanoma, in the assay with MCF7 breast, in the assay with MDA-MB-435, in the assay on NCI-H226 lung, with OVCAR-5 ovarian and with RXF 393 renal was over 100 µM in each case. In addition, the TGI with SF-539 CNS, in the assay with SK-MEL-28 melanoma and in the assay with SK-MEL-5 melanoma was over 100 µM each time.
Regarding `CC1=NN(c2nc(N)nc(C(C)Sc3cc(Cl)c(C)cc3S(N)(=O)=O)n2)C(C)(C)C1` (stereo not drawn), the TGI with A498 renal, in the assay with A549 NSCLC, in the assay on CCRF-CEM leukemia, in the assay on DU-145 prostate, in the assay on EKVX NSCLC and in the assay on HCC-2998 colon was over 10 µM in each case. The TGI in the assay with HOP-62 NSCLC, with M14 melanoma, in the assay on MCF7 breast, in the assay on NCI-H226 lung, in the assay with OVCAR-5 ovarian and in the assay with RXF 393 renal was over 10 µM in each case. Moreover, the TGI with SF-539 CNS, with SK-MEL-28 melanoma and in the assay with SK-MEL-5 melanoma was over 10 µM each time.
Take `COC(=O)[C@@]12CC[C@]1(C(=O)OC)C1C(C)=CC(=O)O[C@@]12C` (stereo partly drawn): the TGI with A549 NSCLC, in the assay on CCRF-CEM leukemia, with DU-145 prostate, in the assay on EKVX NSCLC, in the assay on HCC-2998 colon and in the assay with HOP-62 NSCLC was over 100 µM throughout. Besides, the TGI in the assay on M14 melanoma, with MCF7 breast, with MDA-MB-435, in the assay with NCI-H226 lung, in the assay on OVCAR-5 ovarian and with RXF 393 renal was over 100 µM throughout. Besides, the TGI in the assay on SF-539 CNS, in the assay with SK-MEL-28 melanoma and in the assay on SK-MEL-5 melanoma was over 100 µM in each case.
`CC1=Nc2nc3ccccc3n2C(C)(C)C1`: the TGI in the assay with A498 renal, with A549 NSCLC, in the assay on CCRF-CEM leukemia, with EKVX NSCLC, with HOP-62 NSCLC and in the assay with M14 melanoma was over 100 µM in each case. In addition, the TGI in the assay with MCF7 breast, in the assay with MDA-MB-435, in the assay with NCI-H226 lung, in the assay on OVCAR-5 ovarian, in the assay with RXF 393 renal and in the assay with SF-539 CNS was over 100 µM each time. Moreover, in the assay with SK-MEL-5 melanoma, the TGI was over 100 µM.

Values taken from PubChem BioAssay (NCI).
